Experimental findings from ChEMBL document CHEMBL1127336, “P1 aspartate-based peptide alpha-((2,6-dichlorobenzoyl)oxy)methyl ketones as potent time-dependent inhibitors of interleukin-1 beta-converting enzyme” (J Med Chem, 1994) are described below.

One assay addresses Cathepsin B (Bos taurus) (UniProt P07688). Description: Compound was evaluated for the ability to inhibit cathepsin B purified from bovine spleen.
Assay [1] is described as follows: Selectivity (ICE:cathepsin) of the compound; 108:1.
For assay [2], the target named is T1, Caspase-1 (Homo sapiens) (UniProt P29466).
T1 sequence (whole entry): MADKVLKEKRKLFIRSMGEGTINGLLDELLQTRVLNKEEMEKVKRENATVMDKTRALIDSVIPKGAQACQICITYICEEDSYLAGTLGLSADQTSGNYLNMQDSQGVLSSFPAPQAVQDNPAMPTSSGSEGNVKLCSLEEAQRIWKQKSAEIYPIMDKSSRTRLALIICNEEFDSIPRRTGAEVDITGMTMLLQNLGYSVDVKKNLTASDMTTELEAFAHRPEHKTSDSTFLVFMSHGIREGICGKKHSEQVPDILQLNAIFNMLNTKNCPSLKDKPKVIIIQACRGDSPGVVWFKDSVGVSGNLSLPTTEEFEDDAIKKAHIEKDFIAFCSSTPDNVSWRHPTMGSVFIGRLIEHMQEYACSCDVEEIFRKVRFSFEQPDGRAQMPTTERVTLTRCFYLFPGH
Put plainly: Compound was evaluated for the ability to inhibit Interleukin-1-beta-converting enzyme (ICE) purified from THP-1 cells.

Assay [3] is described as follows: Selectivity (ICE:cathepsin) of the compound; 700:1.
Assay [4] addresses T1, Caspase-1 (Homo sapiens). Put plainly: Compound was evaluated for the ability to inhibit Interleukin-1-beta-converting enzyme (ICE) purified from THP-1 cells; […].

`CC(C)[C@H](NC(=O)OCc1ccccc1)C(=O)N[C@@H](C)C(=O)N[C@@H](CC(=O)O)C(=O)COC(=O)c1c(Cl)cccc1Cl` yielded a k obs / 1 on Cathepsin B (Bos taurus) of 2250 M⁻¹ s⁻¹.
In the case of `CC(C)C(NC(=O)OCc1ccccc1)C(=O)N[C@@H](CC(=O)O)C(=O)COC(=O)c1c(Cl)cccc1Cl` (some centres not stated), the Selectivity in assay [1] turned out to be 108. Further, the k obs / 1 on Caspase-1 (Homo sapiens) [2] came out at 41000 M⁻¹ s⁻¹; at Cathepsin B (Bos taurus) it was 380 M⁻¹ s⁻¹.
The molecule `O=C(O)C[C@H](NC(=O)OCc1ccccc1)C(=O)COC(=O)c1c(Cl)cccc1Cl` returned a k obs / 1 at Cathepsin B (Bos taurus) of less than 10 M⁻¹ s⁻¹. Moreover, the Selectivity in assay [3] is greater than 700.
As for `O=C(O)CC[C@H](NC(=O)OCc1ccccc1)C(=O)COC(=O)c1c(Cl)cccc1Cl`, the “k obs / 1” value at Caspase-1 (Homo sapiens) [4] is “No inhibition”.
